Experimental findings from patent publication US20180171411A1, “GFRalpha1 AS A BIOMARKER FOR CISPLATIN-INDUCED CHEMORESISTANCE AND METASTASIS” (THE BOARD OF REGENTS OF THE UNIVERSITY OF TEXAS SYSTEM, priority 2015, published 2018) are described below.

The test system of the test is LC3 puncta in MG-63 cells. Nature of the test: LC3 puncta formation (mRFP-GFP-LC3 reporter). It is filed as cell-based, human. To be noted: for LC3 puncta formation: cisplatin 20 μM, 24 hr. How it is done:
FIG. 3. GFRα1-induced autophagy enhances the chemoresistance of osteosarcoma cells induced by cisplatin. (a) Control and GFRα1-deficient MG-63 cells were transiently transfected with a mRFP-GFP tandem fluorescent-tagged LC3 (mRFP-GFP-LC3) vector and then treated with cisplatin (20μM) for 24 hr. Left, representative images of RFP-LC3 and GFP-LC3 puncta. Scale bar, 20 μm. Right, quantitative analysis of the number of yellow puncta and the number of RFP-LC3 puncta in the combined images. The values are represented as a mean±s.d.m. (n=3). ** denotes p<0.05 by t-test. (b) Control and GFRα1-deficient MG-63 cells were treated with cisplatin (20 μM) for 24 hr and then stained with acridine orange. Top, representative images of cells stained with acridine orange. Scale bar, 20 μm. Bottom, quantitative analysis of the number of AVOs. The values are represented as a mean±s.d.m. (n=3). ** denotes p<0.05 by t-test. (c) Control and GFRα1-deficient MG-63 cells were treated with cisplatin (20 μM) for 24 hr and then analyzed by TEM. Top, representative images of autophagic vacuoles (yellow arrows) detected after cisplatin treatment in control MG-63 cells. Scale bar, 100 nm. Bottom, quantitative analysis of the number of autophagic vacuoles. The values are represented as a mean±s.d.m. (n=3). ** denotes p<0.05 by t-test. (d) Immunoblot analysis of control and GFRα1-overexpressing osteosarcoma cell lysates with antibodies specific for GFRα1, LC3 and β-actin. GFRα1-overexpressing MG-63 cells were treated with DMSO, 3-MA (10 μM) or Baf (100 nM). (e) Quantitative analysis of the number of yellow puncta and the number of RFP-LC3 puncta in control and GFRα1-overexpressing MG-63 cells. Control and GFRα1-overexpressing MG-63 cells were transiently transfected with an RFP-GFP tandem fluorescent-tagged LC3 (mRFP-GFP-LC3) and then treated with cisplatin (20 μM) for 24 hr. […] (g) Control and GFRα1-overexpressing MG-63 cells were treated with cisplatin (20 μM) for 24 hr and then stained with acridine orange. Top, representative images of cells stained with acridine orange. Scale bar, 20 μm. Bottom, quantitative analysis of the number of AVOs. The values are represented as a mean±s.d.m. (n=3). ** denotes p<0.05 by t-test. (h) Control and GFRα1-overexpressing MG-63 cells were treated with cisplatin (20 μM) for 24 hr and then analyzed by TEM. Top, representative images of autophagic vacuoles detected after cisplatin treatment in control and GFRα1-overexpressing MG-63 cells. Scale bar, 100 nm. Bottom, quantitative analysis of the number of autophagic vacuoles. The values are represented as a mean±s.d.m. (n=3). ** denotes p<0.05 by t-test. (i) Cell viability of GFRα1-overexpressing osteosarcoma cells after cisplatin treatment in the presence of autophagy inhibitors. Control or GFRα1-overexpressing MG-63 cells were cultured with DMSO, 3-MA or Baf, and then treated with cisplatin (20 μM) for 24 hr. Cell viability was measured using the WST-1 assay. The values are represented as a mean±s.d.m. (n=3). ** denotes p<0.05 by t-test. (j) Cell viability of GFRα1-overexpressing osteosarcoma cells after cisplatin treatment in the presence of Beclin 1 (20 nM) or HMGB1 (20 nM) […] siRNA. Control or GFRα1-overexpressing MG-63 cells were cultured with Beclin 1 or HMGB1 siRNA for 48 hr and then treated with cisplatin (20 μM) for 24 hr. Cell viability was measured using the WST-1 assay. The values are represented as a mean±s.d.m. (n=3). ** denotes p<0.05 by t-test. (k) The effect of GFRα1 deficiency or overexpression on colony formation in the presence of cisplatin (20 μM). Equal number (1×10^4 cells) of control (control shRNA), GFRα1-deficient (GFRα1 shRNA), control (empty vector), and GFRα1-overexpressing (GFRα1 expressing vector) MG-63 cells were plated. All of cell lines were incubated with cisplatin (20 μM) for 10 days. Colonies were stained by crystal violet for visualization. Left, representative images of colony formation. Right, quantitative analysis of the number of colonies and plating efficiency. […]

For `N.N.[Cl][Pt][Cl]` [cisplatin, Cis-Diamineplatinum(II) dichloride], the LC3 puncta formation entry by setting is: (GFRα1-deficient MG-63 cells) “no change”; (MG-63 cells transfected with control shRNA) “significantly increased”.

For the molecule `Cn1cnc(N)c2ncnc1-2` [3-MA, 3-methyladenine], under “MG-63 cells pretreated with 3-MA (10 mM) 2 hr, cisplatin 20 μM 24 hr”, the cisplatin-induced puncta formation entry is “blocked”. Further, the puncta formation entry (control and GFRα1-overexpressing cells, 3-MA pretreatment 2 hr) is listed as “blocked”.

B1: GDNF: glial cell line-derived neurotrophic factor, the major ligand of GFRα1 (protein, UniProt P39905 78-211, looked up)
Glial cell line-derived …: SPDKQMAVLPRRERNRQAAAANPENSRGKGRRGQRGKNRGCVLTAIHLNVTDLGLGYETKEELIFRYCSGSCDAAETTYDKILKNLSRNRRLVSDKVGQACCRPIAFDDDLSFLDDNLVYHILRKHSAKRCGCI
For B1, under “control and GFRα1-overexpressing MG-63 cells, GDNF”, the “GFRα1-mediated autophagy after cisplatin treatment” value is “did not have an effect”. In addition, where the note is “control or GFRα1-overexpressing cells, GDNF 24 h”, the “LC3 puncta formation on addition of GDNF” value is reported as “no significant effect”.
